Results on 26 compounds are retold here after ChEMBL document CHEMBL3400008, “Potent and selective Bruton's tyrosine kinase inhibitors: discovery of GDC-0834” (Bioorg Med Chem Lett, 2015).

Molecules are shown by their SMILES. ≈ marks a conversion by molar mass, not a printed value.

Data set [1] has as its target Tyrosine-protein kinase BTK (Mus musculus, UniProt P35991).
Data set [2] is described as follows: Oral bioavailability in cynomolgus monkey. In kind it is ADME, organism-based, Macaca fascicularis. Conditions: in vivo.
Data set [3] is described as follows: Oral bioavailability in rat compound administered as suspension in crystalline freebase in 0.5% (w/v) methylcellulose and 0.2% (w/v) polysorbate 80 in water. In kind it is ADME, organism-based. The note with it: in vivo.
The test system of data set [4] is Salmonella typhimurium. Put plainly: Toxicity in Salmonella typhimurium TA98 in presence of S9 fraction. In kind it is organism-based. The note with it: salmonella enterica subsp. enterica serovar typhimurium.
Data set [5] can be described thus: Clearance in dog. The note with it: in vivo. In kind it is ADME, organism-based, Canis lupus familiaris.
The test system of data set [6] is Salmonella typhimurium. Put plainly: Toxicity in Salmonella typhimurium TA100 in absence of S9 fraction. The note with it: salmonella enterica subsp. enterica serovar typhimurium. In kind it is organism-based.
Data set [7] in a line: Clearance in cynomolgus monkey. In kind it is ADME, organism-based, Macaca fascicularis. Conditions: in vivo.
For the next data set, the target named is hERG (KCNH2) (Homo sapiens, UniProt Q12809). Briefly: Inhibition of human ERG at 10 uM.
A short description of data set [8]: Oral bioavailability in mouse. In kind it is ADME, organism-based. Conditions: in vivo.
Data set [9] is described as follows: Oral bioavailability in dog compound administered as solution in 60% polyethylene glycol 400 in water. In kind it is ADME, organism-based, Canis lupus familiaris. Conditions: in vivo.
Data set [10] deals with Salmonella typhimurium. Briefly: Toxicity in Salmonella typhimurium TA98 in absence of S9 fraction. In kind it is organism-based. Conditions: salmonella enterica subsp. enterica serovar typhimurium.
Data set [11] is described as follows: Solubility of the compound in fasted-state simulated intestinal fluid at pH 6.8. In kind it is ADME.
Data set [12] is described as follows: Clearance in rat. In kind it is ADME, organism-based. Conditions: in vivo.
Data set [13] has as its system Homo sapiens. Briefly: Drug metabolism in healthy human plasma assessed as formation of M1 metabolite at 35 to 105 mg, po. In kind it is ADME, organism-based. The note with it: in vivo.
A short description of data set [14]: Clearance in mouse. In kind it is ADME, organism-based. The note with it: in vivo.
In data set [15] the test system is Salmonella typhimurium. Put plainly: Toxicity in Salmonella typhimurium TA100 in presence of S9 fraction. In kind it is organism-based. The note with it: salmonella enterica subsp. enterica serovar typhimurium.
Data set [16] is described as follows: Oral bioavailability in rat compound administered as solution in 20% (v/v) cremophor EL and 10% (v/v) ethanol in water. In kind it is ADME, organism-based. Conditions: in vivo.
The nature of data set [17]: Oral bioavailability in dog compound administered as as suspension in crystalline freebase in 0.5% (w/v) methylcellulose and 0.2% (w/v) polysorbate 80 in water. In kind it is ADME, organism-based, Canis lupus familiaris. Conditions: in vivo.
Data set [18] concerns the target T1, Tyrosine-protein kinase BTK (Homo sapiens, UniProt Q06187). Put plainly: Inhibition of BTK (unknown origin) after 1 hr by FRET assay.
Data set [19] deals with T1, Tyrosine-protein kinase BTK.
Data set [20] has as its system Homo sapiens. Put plainly: Drug metabolism in healthy human plasma treated with GDC-0834 at 35 to 105 mg, po. Conditions: in vivo. In kind it is ADME, organism-based.

T1 sequence (Q06187 whole entry): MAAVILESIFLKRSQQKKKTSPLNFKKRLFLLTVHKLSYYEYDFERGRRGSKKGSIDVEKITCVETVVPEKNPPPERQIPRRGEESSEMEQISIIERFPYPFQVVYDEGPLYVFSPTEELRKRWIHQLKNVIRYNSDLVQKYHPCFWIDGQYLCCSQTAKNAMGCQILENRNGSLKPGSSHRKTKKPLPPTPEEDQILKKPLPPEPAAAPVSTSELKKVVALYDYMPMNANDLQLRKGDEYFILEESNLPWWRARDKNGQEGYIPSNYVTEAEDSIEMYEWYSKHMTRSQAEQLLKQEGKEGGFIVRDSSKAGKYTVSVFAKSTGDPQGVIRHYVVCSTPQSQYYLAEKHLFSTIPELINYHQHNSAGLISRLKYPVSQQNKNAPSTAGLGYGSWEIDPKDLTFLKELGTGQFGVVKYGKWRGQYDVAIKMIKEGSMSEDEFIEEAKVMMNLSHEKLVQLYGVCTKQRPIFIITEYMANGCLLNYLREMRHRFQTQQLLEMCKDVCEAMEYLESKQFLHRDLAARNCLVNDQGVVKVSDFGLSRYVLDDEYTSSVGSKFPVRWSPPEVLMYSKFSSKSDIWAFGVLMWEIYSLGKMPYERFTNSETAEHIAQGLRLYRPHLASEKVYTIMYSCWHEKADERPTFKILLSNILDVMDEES
Tyrosine-protein kinase BTK (Mus musculus, UniProt P35991), sequence (P35991 whole entry): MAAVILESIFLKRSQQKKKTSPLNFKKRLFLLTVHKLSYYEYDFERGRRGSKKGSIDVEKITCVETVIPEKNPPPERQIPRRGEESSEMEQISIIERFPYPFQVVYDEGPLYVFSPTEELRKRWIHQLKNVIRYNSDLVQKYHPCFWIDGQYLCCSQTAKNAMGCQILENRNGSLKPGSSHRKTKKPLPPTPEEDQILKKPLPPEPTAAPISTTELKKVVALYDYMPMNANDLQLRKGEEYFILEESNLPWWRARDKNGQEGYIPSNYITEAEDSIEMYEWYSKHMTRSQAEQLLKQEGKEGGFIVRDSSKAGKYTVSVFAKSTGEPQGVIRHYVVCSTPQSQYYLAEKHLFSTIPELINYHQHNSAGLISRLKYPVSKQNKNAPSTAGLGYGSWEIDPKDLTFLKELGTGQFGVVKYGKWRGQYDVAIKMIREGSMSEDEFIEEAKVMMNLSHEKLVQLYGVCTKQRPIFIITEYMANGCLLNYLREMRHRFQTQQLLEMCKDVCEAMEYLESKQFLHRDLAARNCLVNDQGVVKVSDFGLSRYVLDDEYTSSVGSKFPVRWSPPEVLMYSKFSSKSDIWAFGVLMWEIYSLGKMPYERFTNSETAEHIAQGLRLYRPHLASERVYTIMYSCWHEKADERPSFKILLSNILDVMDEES
hERG (KCNH2), sequence (Q12809 whole entry): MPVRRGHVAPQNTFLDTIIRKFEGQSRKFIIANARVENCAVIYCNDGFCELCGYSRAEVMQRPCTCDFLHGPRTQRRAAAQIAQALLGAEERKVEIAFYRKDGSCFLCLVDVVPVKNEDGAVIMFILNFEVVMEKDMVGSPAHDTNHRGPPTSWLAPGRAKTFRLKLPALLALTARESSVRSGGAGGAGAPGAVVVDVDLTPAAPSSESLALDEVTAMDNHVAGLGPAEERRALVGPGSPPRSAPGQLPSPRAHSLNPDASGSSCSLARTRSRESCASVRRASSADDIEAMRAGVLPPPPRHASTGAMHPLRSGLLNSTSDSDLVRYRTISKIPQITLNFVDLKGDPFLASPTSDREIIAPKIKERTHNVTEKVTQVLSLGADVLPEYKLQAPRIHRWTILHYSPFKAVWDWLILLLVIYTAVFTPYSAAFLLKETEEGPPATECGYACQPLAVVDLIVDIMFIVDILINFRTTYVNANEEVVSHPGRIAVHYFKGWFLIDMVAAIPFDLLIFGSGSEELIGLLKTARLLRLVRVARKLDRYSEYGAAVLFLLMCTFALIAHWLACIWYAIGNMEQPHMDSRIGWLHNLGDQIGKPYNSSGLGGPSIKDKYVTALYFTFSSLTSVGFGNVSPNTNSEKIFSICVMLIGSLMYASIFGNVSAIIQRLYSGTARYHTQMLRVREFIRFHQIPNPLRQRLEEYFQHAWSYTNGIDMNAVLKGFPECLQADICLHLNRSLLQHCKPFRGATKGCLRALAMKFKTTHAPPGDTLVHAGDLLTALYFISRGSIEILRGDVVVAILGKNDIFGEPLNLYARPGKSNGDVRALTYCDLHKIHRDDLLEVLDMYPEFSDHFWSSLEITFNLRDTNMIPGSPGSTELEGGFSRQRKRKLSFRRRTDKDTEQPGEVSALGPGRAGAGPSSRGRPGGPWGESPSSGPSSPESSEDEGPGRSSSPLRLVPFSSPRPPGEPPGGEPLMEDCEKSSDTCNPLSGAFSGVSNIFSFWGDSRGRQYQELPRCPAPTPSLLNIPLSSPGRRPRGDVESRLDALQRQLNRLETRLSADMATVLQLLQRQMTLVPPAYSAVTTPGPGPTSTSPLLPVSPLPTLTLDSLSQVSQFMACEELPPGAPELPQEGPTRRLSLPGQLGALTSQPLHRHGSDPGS

In turn, `Cc1c(NC(=O)c2ccc(C(C)(C)C)cc2)cccc1-c1cn(C)c(=O)c(Nc2ccc(C(=O)N3CCOCC3)cc2)n1` gave an IC50 in data set [1] of 150 nM.

`Cc1c(NC(=O)c2cc3c(s2)CCCC3)cccc1-c1cn(C)c(=O)c(Nc2ccc([C@@H]3C(=O)N(C)CCN3C)cc2)n1`: the bioavailability was 16% in [2]; 16% in data set [3]; 18% in data set [8]; 35% in [9]; 35% in data set [16]; 32% in data set [17]. Also, the Activity result with Salmonella typhimurium [4], with Salmonella typhimurium [6], with Salmonella typhimurium [10] and in the data set on Salmonella typhimurium [15] was “Non-toxic” each time. In addition, the clearance in data set [5] turned out to be 14 mL/min/kg; in data set [7] it was 33 mL/min/kg; in data set [12] it was 4.4 mL/min/kg; in data set [14], 43 mL/min/kg. 10 µM produced 27% inhibition on hERG (KCNH2). The same compound came in with a solubility in data set [11] of 7 µg/mL (≈ 11.7 µM). The Drug metabolism entry with Homo sapiens [13] is reported as “metabolite_detected”.

The compound `Cc1c(NC(=O)c2ccccc2)cccc1-c1cn(C)c(=O)c(Nc2ccc(C(=O)N3CCOCC3)cc2)n1` had an IC50 in data set [18] of 4600 nM.

As for `Cc1ccc(C(=O)Nc2cccc(-c3cn(C)c(=O)c(Nc4ccc(C(=O)N5CCOCC5)cc4)n3)c2C)cc1`, the concentration for half-maximal inhibition (IC50) in data set [18] was 860 nM.

`CCc1ccc(C(=O)Nc2cccc(-c3cn(C)c(=O)c(Nc4ccc(C(=O)N5CCOCC5)cc4)n3)c2C)cc1`: the IC50 in [18] amounted to 225 nM.

On to `Cc1c(NC(=O)c2ccc(N(C)C)cc2)cccc1-c1cn(C)c(=O)c(Nc2ccc(C(=O)N3CCOCC3)cc2)n1`, for which the IC50 in [19] amounted to 230 nM; in data set [1], 410 nM.

`CCC(C)(C)c1ccc(C(=O)Nc2cccc(-c3cn(C)c(=O)c(Nc4ccc(C(=O)N5CCOCC5)cc4)n3)c2C)cc1`: the IC50 came out at 40 nM in [19] and 80 nM in [1].

`Cc1c(NC(=O)c2ccc(C3(C)CC3)cc2)cccc1-c1cn(C)c(=O)c(Nc2ccc(C(=O)N3CCOCC3)cc2)n1`: the values for the half-inhibitory concentration (IC50) in data set [19] and in [1] were 30 nM and 580 nM, respectively.

`Cc1c(NC(=O)c2ccc(C(C)(C)O)cc2)cccc1-c1cn(C)c(=O)c(Nc2ccc(C(=O)N3CCOCC3)cc2)n1`: the IC50 in [19] amounted to 150 nM; in data set [1], 2800 nM.

Regarding `Cc1c(NC(=O)c2ccc([Si](C)(C)C)cc2)cccc1-c1cn(C)c(=O)c(Nc2ccc(C(=O)N3CCOCC3)cc2)n1`, the 50% inhibitory concentration (IC50) in [19] was found to be 90 nM; in [1], 1100 nM.

Compound `Cc1c(NC(=O)c2ccc(C(C)(C)C)s2)cccc1-c1cn(C)c(=O)c(Nc2ccc(C(=O)N3CCOCC3)cc2)n1` displayed a 50% inhibitory concentration (IC50) in data set [1] of 490 nM.

Regarding `Cc1c(NC(=O)c2cnc(C(C)(C)C)nc2)cccc1-c1cn(C)c(=O)c(Nc2ccc(C(=O)N3CCOCC3)cc2)n1`, the IC50 turned out to be 270 nM in data set [19] and 3700 nM in data set [1].

In the case of `Cc1c(NC(=O)c2ncc(C(C)(C)C)cn2)cccc1-c1cn(C)c(=O)c(Nc2ccc(C(=O)N3CCOCC3)cc2)n1`, inhibition in [19] was half-maximal at 50 nM (IC50).

With `Cc1c(NC(=O)c2ccc(C(C)(C)C)nc2)cccc1-c1cn(C)c(=O)c(Nc2ccc(C(=O)N3CCOCC3)cc2)n1`, the 50% inhibitory concentration (IC50) in data set [19] turned out to be 130 nM; in data set [1], 3500 nM.

For `Cc1c(NC(=O)c2cnc(C(C)(C)C)cn2)cccc1-c1cn(C)c(=O)c(Nc2ccc(C(=O)N3CCOCC3)cc2)n1`, the IC50 in [19] was 70 nM; in data set [1] it was 890 nM.

`Cc1c(NC(=O)c2cc3c(s2)CCCC3)cccc1-c1cn(C)c(=O)c(Nc2ccc(C(=O)N3CCOCC3)cc2)n1`: 230 nM corresponded to half-maximal inhibition in [1] (IC50). The clearance in data set [12] is 6 mL/min/kg. The compound further gave a bioavailability in data set [16] of 29%.

With `Cc1c(NC(=O)c2cc3c(s2)CCOC3)cccc1-c1cn(C)c(=O)c(Nc2ccc(C(=O)N3CCOCC3)cc2)n1`, the IC50 in [1] stood at 1300 nM.

`Cc1c(NC(=O)c2cc3c(s2)CCCC3)cccc1-c1cn(C)c(=O)c(Nc2cccnc2)n1`: the IC50 in [1] came out at 5000 nM. The compound further had a clearance in data set [12] of 9.2 mL/min/kg. Besides, the bioavailability in [16] was 53%.

`Cc1c(NC(=O)c2cc3c(s2)CCCC3)cccc1-c1cn(C)c(=O)c(Nc2ccncn2)n1` showed a clearance in data set [12] of 5.4 mL/min/kg. In addition, the bioavailability in data set [16] was 37%.

In turn, `Cc1c(NC(=O)c2cc3c(s2)CCCC3)cccc1-c1cn(C)c(=O)c(Nc2ccc3[nH]ccc3c2)n1` displayed an IC50 in data set [1] of 1100 nM.

As to `Cc1c(NC(=O)c2cc3c(s2)CCCC3)cccc1-c1cn(C)c(=O)c(Nc2ccn3ccnc3c2)n1`, in data set [1], the IC50 came to 1300 nM.

Consider `Cc1c(NC(=O)c2cc3c(s2)CCCC3)cccc1-c1cn(C)c(=O)c(Nc2ccc(C3CCN(C)CC3)cc2)n1`, for which, in data set [1], the IC50 is 60 nM. Also, in data set [12], the clearance was found to be 111 mL/min/kg. The bioavailability in [16] is < 5%.

In the case of `Cc1c(NC(=O)c2cc3c(s2)CCCC3)cccc1-c1cn(C)c(=O)c(Nc2ccc(N3CC[C@@H](N(C)C)C3)cc2)n1`, the concentration for half-maximal inhibition (IC50) in [1] is 800 nM.

Compound `Cc1c(NC(=O)c2cc3c(s2)CCCC3)cccc1-c1cn(C)c(=O)c(Nc2ccc(-c3ncc[nH]3)cc2)n1` returned an IC50 in [1] of 23900 nM.

Take `Cc1c(NC(=O)c2cc3c(s2)CCCC3)cccc1-c1cn(C)c(=O)c(Nc2ccc([C@H]3C(=O)N(C)CCN3C)cc2)n1`: the clearance in data set [12] was 11 mL/min/kg. Further, in data set [16], the bioavailability stood at 41%.

On to `Cc1c(N)cccc1-c1cn(C)c(=O)c(Nc2ccc([C@@H]3C(=O)N(C)CCN3C)cc2)n1`, for which the Drug metabolism entry in the data set on Homo sapiens [20] is “metabolite_detected”.
